# Laboratory results taken from paper PMC12778052 (Science Advances, 2026).
# What was measured:
# UC14 cells = experiment: In vitro binding of [^68Ga]AJ647 to UC14 cells; assay type: cell-based; conditions: 1 × 10^6 cells, ~1 μCi, 30 min, 4°C, means ± SD, n = 4
# Protocol: In vitro binding of [^68Ga]AJ647 to T24, SCaBER, RT112, UC9, UC14, and HT1376 cells was determined by incubating 1 × 10^6 cells with ~1 μCi of [^68Ga]AJ647 for 30 min at 4°C. After incubation, cells were washed three times with ice-cold PBS containing 0.1% Tween 20 and counted on an automated gamma counter. All cell radioactivity uptake studies were performed in quadruplicate for each cell line and repeated three times.
# mouse Nectin-4 = target: T1, mouse Nectin-4 (Mus musculus, UniProt Q8R007); experiment: SPR affinity for recombinant mouse Nectin-4; assay type: binding; conditions: mouse Nectin-4
# T1 construct: purchased R&D Systems 3116-N4-050
# T1 sequence (Q8R007 31-347 limits assumed): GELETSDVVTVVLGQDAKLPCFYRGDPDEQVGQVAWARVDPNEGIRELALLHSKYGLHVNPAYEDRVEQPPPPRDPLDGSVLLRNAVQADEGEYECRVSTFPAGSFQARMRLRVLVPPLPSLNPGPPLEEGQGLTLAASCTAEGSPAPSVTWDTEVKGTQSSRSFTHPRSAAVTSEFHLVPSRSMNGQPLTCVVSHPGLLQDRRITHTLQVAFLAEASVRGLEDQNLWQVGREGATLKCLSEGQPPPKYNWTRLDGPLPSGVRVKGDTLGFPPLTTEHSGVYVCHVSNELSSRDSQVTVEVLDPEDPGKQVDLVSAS
# Protocol: The affinity of AJ647 for human and mouse Nectin-4 recombinant proteins was evaluated by SPR. The experiments were conducted using a Biacore T200 instrument with a CM5 chip at 25°C. The ligands used were His-tagged human Nectin-4 (R&D Systems, catalog no. 2659-N4-050, 44 kDa, 0.2 mg/ml stock concentration) and mouse Nectin-4 proteins (R&D Systems, catalog no. 3116-N4-050, 45 kDa, 0.2 mg/ml stock concentration), which were immobilized onto the CM5 chip. AJ647 (3057.5 Da, 10 mM stock concentration) was used as the analyte, which flowed over the ligand-immobilized surface. FC2 and FC4 was used as the experimental flow cell, while FC1 and FC3 served as the reference. An anti-His antibody (1 mg/ml stock concentration) was immobilized on all flow cells using standard amine coupling chemistry. […] Human Nectin-4 was captured onto FC2 at a level of ~600 RU, with a 1:20 dilution and 10 μg/ml diluted concentration in PBS-P. Mouse Nectin-4 was captured onto FC4 at a level of 600 RU, with a 1:20 dilution and 10 μg/ml diluted concentration in PBS-P. The theoretical maximum response (Rmax ) values were calculated on the basis of the captured response values (table S1), assuming a 1:1 interaction mechanism. […] All association and dissociation kinetics were evaluated by 1:1 kinetics model fitting.
smiles,measurement,setting,value
"CSCC[C@@H]1NC(=O)[C@@H]2CSCCC(=O)N3CN(CN(C3)C(=O)CCSC[C@H](NC(=O)CCOCCOCCOCCOCCOCCOCCOCCOCCOCCOCCOCCOCCNC(=O)CN3CCN(CC(=O)O)CCN(CC(=O)O)CC3)C(=O)N3CCC[C@H]3C(=O)N[C@@H](Cc3cccc4ccccc34)C(=O)N[C@@H](CC(=O)O)C(=O)N2)C(=O)CCSC[C@@H](C(N)=O)NC(=O)[C@H](Cc2c[nH]c3ccccc23)NC(=O)[C@@H]2C[C@@H](O)CN2C(=O)[C@@H]2CCCN2C(=O)[C@H]([C@@H](C)O)NC(=O)[C@H](CO)NC(=O)[C@H](Cc2c[nH]c3ccccc23)NC(=O)[C@@H](CC(=O)O)NC(=O)[C@H](CCCCNC(=N)N)NC1=O [[^68Ga]AJ647, metal not drawn]",[^68Ga]AJ647 uptake,UC14 cells,3.0 ± 0.42 %IA
same,koff,mouse Nectin-4,0.0101 ± 0.00295 s⁻¹
